Laboratory results as given in US11787785B2 (NOVARTIS AG, priority 2021, dated 2023).

Biological target: T1, WIZ protein (HiBit-WIZ fusion protein) (Homo sapiens, UniProt O95785+Q96SW2)
T1 construct: expressed in transfected cells
Assay: Quantification of WIZ protein levels in HiBit tag fusion protein assay (WIZ HiBit assay in 293T cells)
Type: cell-based
Set-up: remaining activity / Dmax: dose or concentration left out as unconfirmed
Conditions: for Dmax at 25 µM: 100 − Amax; for Dmax at 25 µM / remaining activity at 25 µM: 293T cells; for remaining activity at 25 µM: DMSO-normalized, curve-fitted percentage of WIZ-HiBit remaining at 25 uM; for DC50: WIZ HiBit assay in 293T cells, 10-point, 5-fold dose response, highest concentration 25 μM, about 18 hours, read-out: WIZ AC50
Experimental: The HiBit system from Promega was used to develop high-throughput and quantitative assays to measure changes in WIZ protein levels in response to compounds. The HiBit tag was derived from a split Nanoluciferase and has the following protein sequence: […] (SEQ ID NO: 1). The complementary fragment of Nanoluciferase (known as LgBit, from Promega), was added to the HiBit tag to form an active Nanoluciferase enzyme whose activity can be precisely measured. In this way, the levels of a fusion protein with the HiBit tag can be quantified in cell lysates.
Lentiviral vectors, based on the Invitrogen™ pLenti6.2/V5 DEST backbone were constructed that places the HiBit tag upstream of WIZ and expressed the fusion protein from an HSVTK promotor.
To ensure moderate and consistent expression of the HiBit-WIZ fusion protein across all cells in the population, stable cell lines were constructed from cells harboring a single copy of the construct. Lentivirus packaged with the constructs were made using the ViraPower™ kit from Invitrogen™. 293T cells from ATCC (Catalog number: CRL-3216), were infected with the virus at low multiplicity of infection and selected by 5 μg/mL blasticidin in culture media for 2 weeks.
The levels of HiBit-WIZ tagged fusion proteins in compound-treated cell lines were measured as follows:
On day 1, cells were diluted to 1.0×10^6 cells/ml in normal growth medium. 20 μL of cell suspension were plated in each well of a solid white 384-well plate. Plates were incubated overnight in a 37° C. and 5% CO2 humidified tissue culture incubator.
On day 2, serial dilutions of compounds were made in 384-well plates. Compound plates were set up with DMSO in columns 1, 2, 23, 24, and 10-point compound dilution series in column 3-12 and column 13-22. 10 mM stock solution of compound were placed into column 3 or 13 and a 1:5 serial dilution was carried out until there was a 10-point dilution series per compound. 50 nL of diluted compounds were transferred into the plated cells by Echo® (Labcyte) acoustic transfer. The highest concentration of compound was 25 μM. Plates were incubated overnight (about 18 hours) in a 37° C. and 5% CO2 humidified tissue culture incubator.
On day 3, plates were removed from the incubator and allowed to equilibrate at room temperature for 60 minutes. HiBit substrate (Nano-Glo® HiBit Lytic Detection System, Promega Catalogue number: N3050) was added as described by the manufacturers protocols. Plates were incubated at room temperature for 30 minutes and luminescence was read using an EnVision® reader (PerkinElmer®). Data was analyzed and visualized using the Spotfire® software package.
WIZ Degradation Activity of Compounds (Table 1)
WIZ Amax reflects the DMSO-normalized, curve-fitted percentage of WIZ-HiBit remaining at 25 uM. It was calculated by normalizing […] controls to 100%, parametric curve fitting of the dose response data (10-point, 5-fold), followed by calculation of response at 25 uM using the fitted equation (nd=not determined).

[1] = HEK-293T, read-out: % degradation of WIZ (100 − Amax)

T1 sequence (O95785 whole entry, the tested form may be a part): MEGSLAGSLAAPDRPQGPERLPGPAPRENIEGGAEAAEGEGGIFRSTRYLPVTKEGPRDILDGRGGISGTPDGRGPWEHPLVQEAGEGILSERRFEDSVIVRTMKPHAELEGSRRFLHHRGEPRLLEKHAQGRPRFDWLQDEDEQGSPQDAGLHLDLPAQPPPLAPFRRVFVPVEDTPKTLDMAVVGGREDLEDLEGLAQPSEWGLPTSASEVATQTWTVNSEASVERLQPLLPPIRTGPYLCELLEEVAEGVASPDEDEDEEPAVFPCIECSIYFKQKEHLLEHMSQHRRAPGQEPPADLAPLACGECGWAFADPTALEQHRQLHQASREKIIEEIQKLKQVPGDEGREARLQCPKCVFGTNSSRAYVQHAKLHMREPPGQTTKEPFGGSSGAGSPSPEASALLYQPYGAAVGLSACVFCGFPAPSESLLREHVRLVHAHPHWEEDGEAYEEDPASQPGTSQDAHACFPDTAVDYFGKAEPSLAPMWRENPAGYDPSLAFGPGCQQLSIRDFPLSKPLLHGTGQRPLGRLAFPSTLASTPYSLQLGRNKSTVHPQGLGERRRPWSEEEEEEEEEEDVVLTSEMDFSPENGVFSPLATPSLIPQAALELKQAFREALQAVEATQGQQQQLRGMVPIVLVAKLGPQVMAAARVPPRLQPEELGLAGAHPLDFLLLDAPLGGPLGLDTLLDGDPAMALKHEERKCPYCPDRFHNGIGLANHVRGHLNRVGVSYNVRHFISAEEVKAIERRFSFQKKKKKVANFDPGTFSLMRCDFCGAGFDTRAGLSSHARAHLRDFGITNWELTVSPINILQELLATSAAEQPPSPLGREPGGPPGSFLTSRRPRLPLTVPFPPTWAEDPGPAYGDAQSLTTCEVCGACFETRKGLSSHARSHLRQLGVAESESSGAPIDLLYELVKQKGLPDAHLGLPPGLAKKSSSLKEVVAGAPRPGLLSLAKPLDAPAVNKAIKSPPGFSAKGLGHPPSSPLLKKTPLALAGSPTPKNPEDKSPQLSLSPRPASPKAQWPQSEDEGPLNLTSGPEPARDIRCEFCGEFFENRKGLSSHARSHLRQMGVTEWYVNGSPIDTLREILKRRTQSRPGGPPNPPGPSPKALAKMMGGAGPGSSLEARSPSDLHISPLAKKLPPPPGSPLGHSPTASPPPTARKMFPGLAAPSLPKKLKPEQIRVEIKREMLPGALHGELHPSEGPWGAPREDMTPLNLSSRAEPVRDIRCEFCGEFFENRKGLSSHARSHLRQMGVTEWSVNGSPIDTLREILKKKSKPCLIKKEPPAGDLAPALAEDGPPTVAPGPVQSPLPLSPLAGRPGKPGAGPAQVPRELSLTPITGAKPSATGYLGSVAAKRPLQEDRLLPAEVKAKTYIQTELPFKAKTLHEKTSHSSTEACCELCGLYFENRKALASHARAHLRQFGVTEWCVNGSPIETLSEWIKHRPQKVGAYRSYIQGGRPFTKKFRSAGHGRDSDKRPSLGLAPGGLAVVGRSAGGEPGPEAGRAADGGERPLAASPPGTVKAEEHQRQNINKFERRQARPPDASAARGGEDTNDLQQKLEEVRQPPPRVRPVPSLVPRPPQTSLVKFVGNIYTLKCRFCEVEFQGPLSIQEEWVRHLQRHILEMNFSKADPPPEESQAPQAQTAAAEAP
T1 sequence (Q96SW2 whole entry, the tested form may be a part): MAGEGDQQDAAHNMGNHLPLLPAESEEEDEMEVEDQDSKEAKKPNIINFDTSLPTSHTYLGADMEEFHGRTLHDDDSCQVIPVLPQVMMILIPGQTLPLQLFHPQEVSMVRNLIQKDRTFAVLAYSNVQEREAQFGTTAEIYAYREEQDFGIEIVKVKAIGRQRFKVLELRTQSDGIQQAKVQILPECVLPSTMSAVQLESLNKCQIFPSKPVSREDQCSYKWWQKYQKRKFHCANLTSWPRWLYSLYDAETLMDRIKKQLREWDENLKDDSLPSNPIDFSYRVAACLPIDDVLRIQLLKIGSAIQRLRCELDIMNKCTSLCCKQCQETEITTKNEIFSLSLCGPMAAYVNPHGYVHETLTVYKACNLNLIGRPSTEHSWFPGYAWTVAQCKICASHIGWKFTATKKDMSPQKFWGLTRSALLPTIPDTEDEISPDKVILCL
T1 sequence (Q16531 whole entry partner, the tested form may be a part): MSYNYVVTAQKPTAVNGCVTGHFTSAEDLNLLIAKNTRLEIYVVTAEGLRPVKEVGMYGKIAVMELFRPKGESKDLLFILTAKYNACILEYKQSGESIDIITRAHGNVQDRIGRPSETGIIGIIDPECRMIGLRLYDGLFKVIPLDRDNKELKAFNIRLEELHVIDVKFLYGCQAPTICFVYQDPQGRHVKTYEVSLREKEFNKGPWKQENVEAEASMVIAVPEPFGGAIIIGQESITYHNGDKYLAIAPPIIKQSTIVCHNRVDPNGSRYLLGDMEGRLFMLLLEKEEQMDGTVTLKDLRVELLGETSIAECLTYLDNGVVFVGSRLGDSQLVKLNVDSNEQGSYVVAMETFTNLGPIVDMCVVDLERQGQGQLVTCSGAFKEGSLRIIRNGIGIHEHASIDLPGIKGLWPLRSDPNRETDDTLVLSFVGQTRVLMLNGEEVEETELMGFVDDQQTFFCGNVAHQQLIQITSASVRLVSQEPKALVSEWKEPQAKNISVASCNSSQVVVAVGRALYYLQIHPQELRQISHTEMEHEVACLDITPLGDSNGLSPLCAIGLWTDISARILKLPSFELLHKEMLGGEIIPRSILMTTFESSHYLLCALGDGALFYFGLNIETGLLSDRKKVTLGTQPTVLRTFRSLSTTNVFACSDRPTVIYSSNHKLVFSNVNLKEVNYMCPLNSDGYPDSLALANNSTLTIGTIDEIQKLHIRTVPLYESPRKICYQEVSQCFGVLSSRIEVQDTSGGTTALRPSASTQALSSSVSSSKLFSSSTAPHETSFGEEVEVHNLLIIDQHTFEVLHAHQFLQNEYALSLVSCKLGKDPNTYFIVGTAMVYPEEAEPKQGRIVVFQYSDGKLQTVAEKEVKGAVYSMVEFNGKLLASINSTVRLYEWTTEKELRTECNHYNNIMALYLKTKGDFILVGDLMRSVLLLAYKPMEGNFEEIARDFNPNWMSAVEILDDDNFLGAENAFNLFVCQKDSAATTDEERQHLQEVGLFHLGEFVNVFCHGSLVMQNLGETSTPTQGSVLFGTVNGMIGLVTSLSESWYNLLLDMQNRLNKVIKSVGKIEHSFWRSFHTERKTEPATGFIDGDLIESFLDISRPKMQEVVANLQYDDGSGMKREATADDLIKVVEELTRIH

SMILES | Dmax at 25 µM [1] | remaining activity at 25 µM (HEK-293T, read-out: WIZ Amax) | DC50 | Dmax [1] | remaining activity (HEK-293T, read-out: WIZ Amax)
O=C1CCN(c2cnn3ccc(CN4CCN(Cc5cccc(F)c5)CC4)cc23)C(=O)N1 [Example 170] | 53% | 47% | 228 nM |  | 
O=C1CCN(c2cnn3ccc(CC4CCN(CC5CCC5)CC4)cc23)C(=O)N1 [Example 18, 1-(5-((1-(cyclobutylmethyl)piperidin-4-yl)methyl)pyrazolo[1,5-a]pyridin-3-yl)dihydropyrimidine-2,4(1H,3H)-dione] | 82% | 18% | 34 nM |  | 
C[C@H]1CN(Cc2ccn3ncc(N4CCC(=O)NC4=O)c3c2)CCN1CC1CCOCC1 [Example 202] | 85% | 15% | 5 nM |  | 
O=C1CCN(c2cnn3ccc(CC4CCN(CCC5CCOCC5)CC4)cc23)C(=O)N1 [Example 11, 1-(5-((1-(2-(tetrahydro-2H-pyran-4-yl)ethyl)piperidin-4-yl)methyl)pyrazolo[1,5-a]pyridin-3-yl)dihydropyrimidine-2,4(1H,3H)-dione] | 84% | 16% | 55 nM |  | 
C[C@H]1C[C@H](Cc2ccn3ncc(-n4cc(Cl)c(=O)[nH]c4=O)c3c2)CCN1CC1CCC(F)(F)CC1 [Example 352, 5-chloro-1-(5-(((2S,4R)-1-((4,4-difluorocyclohexyl)methyl)-2-methylpiperidin-4-yl)methyl)pyrazolo[1,5-a]pyridin-3-yl)pyrimidine-2,4(1H,3H)-dione] | 90% | 10% | 192 nM |  | 
CC(C)C(C)N1CCC(Cc2ccn3ncc(N4CCC(=O)NC4=O)c3c2)CC1 (stereo not drawn) [Example 70, 1-(5-((1-(3-methylbutan-2-yl)piperidin-4-yl)methyl)pyrazolo[1,5-a]pyridin-3-yl)dihydropyrimidine-2,4(1H,3H)-dione] | 83% | 17% | 21 nM |  | 
O=C1CCN(c2cnn3ccc(CC4CCN(C(=O)C5CCCCC5)CC4)cc23)C(=O)N1 [Example 99] | 52% | 48% | 1830 nM |  | 
COCCS(=O)(=O)N1CCC(Cc2ccn3ncc(N4CCC(=O)NC4=O)c3c2)CC1 [Example 92] | 69% | 31% | 131 nM |  | 
Cn1nccc1CN1CCN(Cc2ccn3ncc(N4CCC(=O)NC4=O)c3c2)CC1 [Example 195, 1-(5-((4-((1-methyl-1H-pyrazol-5-yl)methyl)piperazin-1-yl)methyl)pyrazolo[1,5-a]pyridin-3-yl)dihydropyrimidine-2,4(1H,3H)-dione] | 48% | 52% | 2050 nM |  | 
Cc1ccc(CN2CCC(Cc3ccn4ncc(N5CCC(=O)NC5=O)c4c3)CC2)cc1 [Example 47, 1-(5-((1-(4-methylbenzyl)piperidin-4-yl)methyl)pyrazolo[1,5-a]pyridin-3-yl)dihydropyrimidine-2,4(1H,3H)-dione] | 69% | 31% | 157 nM |  | 
COCCN1CCC(Cc2ccn3ncc(N4CCC(=O)NC4=O)c3c2)CC1 [Example 34, 1-(5-((1-(2-methoxyethyl)piperidin-4-yl)methyl)pyrazolo[1,5-a]pyridin-3-yl)dihydropyrimidine-2,4(1H,3H)-dione] | 73% | 27% | 945 nM |  | 
O=C1CCN(c2cnn3ccc(CC4CCN(CC5CCCC5)CC4)cc23)C(=O)N1 [Example 2, 1-(5-((1-(cyclopentylmethyl)piperidin-4-yl)methyl)pyrazolo[1,5-a]pyridin-3-yl)dihydropyrimidine-2,4(1H,3H)-dione] | 91% | 9% | 23 nM |  | 
C[C@H]1C[C@H](Cc2ccn3ncc(N4CCC(=O)NC4=O)c3c2)CCN1CC(F)(F)C(F)F [Example 273, 1-(5-(((2S,4R)-2-methyl-1-(2,2,3,3-tetrafluoropropyl)piperidin-4-yl)methyl)pyrazolo[1,5-a]pyridin-3-yl)dihydropyrimidine-2,4(1H,3H)-dione] |  |  | 40 nM | 78% | 22%
O=C1CCN(c2cnn3ccc(CN4CCN(CC5CCCOC5)CC4)cc23)C(=O)N1 (stereo not drawn) [Example 162] | 79% | 21% | 79 nM |  | 
CC(C)CN1CC[C@@H](Cc2ccn3ncc(-n4cc(F)c(=O)[nH]c4=O)c3c2)C[C@@H]1C [Example 349, 5-fluoro-1-(5-(((2S,4R)-1-isobutyl-2-methylpiperidin-4-yl)methyl)pyrazolo[1,5-a]pyridin-3-yl)pyrimidine-2,4(1H,3H)-dione] | 86% | 14% | 118 nM |  | 
O=C1CCN(c2cnn3ccc(CC4CCN(CC5(F)CCCCC5)CC4)cc23)C(=O)N1 [Example 107, 1-(5-((1-((1-fluorocyclohexyl)methyl)piperidin-4-yl)methyl)pyrazolo[1,5-a]pyridin-3-yl)dihydropyrimidine-2,4(1H,3H)-dione] | 78% | 22% | 31 nM |  | 
C[C@H]1CN(Cc2ccn3ncc(N4CCC(=O)NC4=O)c3c2)CCN1C[C@H]1CCC(F)(F)C1 [Example 320, 1-(5-(((S)-4-(((S)-3,3-difluorocyclopentyl)methyl)-3-methylpiperazin-1-yl)methyl)pyrazolo[1,5-a]pyridin-3-yl)dihydropyrimidine-2,4(1H,3H)-dione] | 78% | 21% | 18 nM |  | 
Cc1cn(-c2cnn3ccc(C[C@@H]4CCN(CC5CC5)[C@@H](C)C4)cc23)c(=O)[nH]c1=O [Example 348, 1-(5-(((2S,4R)-1-(cyclopropylmethyl)-2-methylpiperidin-4-yl)methyl)pyrazolo[1,5-a]pyridin-3-yl)-5-methylpyrimidine-2,4(1H,3H)-dione] | 86% | 14% | 400 nM |  | 
O=C1CCN(c2cnn3ccc(CN4CCN(Cc5cscn5)CC4)cc23)C(=O)N1 [Example 197, 1-(5-((4-(thiazol-4-ylmethyl)piperazin-1-yl)methyl)pyrazolo[1,5-a]pyridin-3-yl)dihydropyrimidine-2,4(1H,3H)-dione] | 40% | 60% | 1140 nM |  | 
O=C1CCN(c2cnn3ccc(CC4CCN(S(=O)(=O)NC5CCCC5)CC4)cc23)C(=O)N1 [Example 298, N-cyclopentyl-4-((3-(2,4-dioxotetrahydropyrimidin-1(2H)-yl)pyrazolo[1,5-a]pyridin-5-yl)methyl)piperidine-1-sulfonamide] | 51% | 49% | 242 nM |  | 
CC(C)CCN1CCN(Cc2ccn3ncc(N4CCC(=O)NC4=O)c3c2)C[C@@H]1C [Example 204] | 84% | 16% | 51 nM |  | 
C[C@H]1CN(Cc2ccn3ncc(N4CCC(=O)NC4=O)c3c2)CCN1C(=O)C1CCCC1 [Example 343, (S)-1-(5-((4-(cyclopentanecarbonyl)-3-methylpiperazin-1-yl)methyl)pyrazolo[1,5-a]pyridin-3-yl)dihydropyrimidine-2,4(1H,3H)-dione] | 46% | 54% | 495 nM |  | 
O=C1CCN(c2cnn3ccc(CN4CCCN(CC5CCCCC5)CC4)cc23)C(=O)N1 [Example 249, 1-(5-((4-(cyclohexylmethyl)-1,4-diazepan-1-yl)methyl)pyrazolo[1,5-a]pyridin-3-yl)dihydropyrimidine-2,4(1H,3H)-dione] | 41% | 59% | 300 nM |  | 
CC(C)N1CCC(Cc2ccn3ncc(N4CCC(=O)NC4=O)c3c2)CC1 [Example 37, 1-(5-((1-isopropylpiperidin-4-yl)methyl)pyrazolo[1,5-a]pyridin-3-yl)dihydropyrimidine-2,4(1H,3H)-dione] | 72% | 28% | 446 nM |  | 
